Reference: patent US9861625B2, “Methods and compositions for treating cancer through inhibition of PI3K” (Duke University, priority 2014, dated 2018)
Like-named read-outs stand apart in the source and are kept apart here.

Columns and labels:
Experiment in all cases: MTT cell viability assay
Format in all cases: cell-based
BJAB = conditions: Homo sapiens
From the text: (§1) A total of 60 cell lines representative of different cancer types were obtained from the ATCC and grown and maintained in accordance with the provided guidelines. The cell lines represented the following distinct histologies: mantle cell lymphoma (5 lines: JVM13, Rec1, Mino, JVM2, Jeko); germinal center B-cell derived (“GCB”) DLBCL (19 lines: Farage, BJAB, Ly1, Ly2, Ly7, Ly8, Ly19, HBL2, HT, Karpas422, Pfeiffer, RCK8, RL, Sci-1, Ski, SUDHL4, SUDHL7, Toledo, WSU-NHL); primary mediastinal B-cell lymphoma (“PMBL”) (3 lines: K1106, MEDB1, U2940); Burkitt lymphoma (11 lines: Daudi, CA46, EB1, EB2, EB3, Jijoye, Raji, Ramos, Namwala, BL2, BL41); Hodgkin lymphoma (3 lines: RMPI6666, L1236, L428); activated B-cell derived (“ABC”) DLBCL (6 lines: Ly3, HBL1, TMD8, Ly10, Riva, U2932); multiple myeloma (6 lines: U266, SKMM1, RPMI8226, KMS12, IM9, H929); acute myelogenous leukemia (“AML”) (2 lines: U937, KG1); acute lymphoblastic leukemia (“ALL”) (2 lines: Reh, SR); and T-cell lymphoma (3 lines: Molt4, RPMI8402, Jurkat). The cell lines were tested within six months after resuscitation.
(§2) The 3-(4,5-dimethylthiazol-2-yl)-2,5-diphenyltetrazolium bromide (MTT) cell viability assay was used to determine cell viability in response to drug treatment. Five replicates per concentration tested were carried out in serial dilutions with a total of ten concentrations with a 50% reduction in drug concentration per dilution for each plate. A total of 15 μl of MTT reagent was added to each drug-treated well and incubated for three hours in 37° C. Detergent was added to each drug-treated well and incubated overnight at room temperature without exposure to light. Absorbance was measured at 570 nm using a plate reader from Tecan Group. The IC50 concentration was determined using the publicly available ED50 plus v1.0 software program.

CA46 = conditions: Homo sapiens; CA46, Burkitt Lymphoma, RPMI 10% FBS
From the text: as §1, §2

Daudi = conditions: Homo sapiens, Burkitt Lymphoma, RPMI 10% FBS
From the text: as §1, §2

EB1 = conditions: EB1, Burkitt Lymphoma, RPMI 10% FBS
From the text: as §1, §2

EB2 = conditions: Homo sapiens; EB2, Burkitt Lymphoma, RPMI 10% FBS
From the text: as §1, §2

EB3 = conditions: Homo sapiens, EB-3; EB3, Burkitt Lymphoma, RPMI 10% FBS
From the text: as §1, §2

Farage = conditions: GCB DLBCL, RPMI 10% FBS
From the text: as §1, §2

H929 = conditions: Homo sapiens, NCI-H929; H929, Multiple Myeloma, RPMI 10% FBS
From the text: as §1, §2

IM9 = conditions: Homo sapiens, IM-9; IM9, Multiple Myeloma, RPMI 10% FBS
From the text: as §1, §2

Jeko = conditions: MantleCellLymphoma, RPMI 10% FBS
From the text: as §1, §2

Jijoye = conditions: Burkitt Lymphoma, RPMI 10% FBS
From the text: as §1, §2

K1106 = conditions: K1106, PMBL, RPMI 15% FBS
From the text: as §1, §2

KG1 = conditions: Homo sapiens, KG-1; KG1, AML, IMDM 20% FBS
From the text: as §1, §2

Karpas422 = conditions: Homo sapiens, KARPAS-422; Karpas422, GCB DLBCL, RPMI 10% FBS
From the text: as §1, §2

L1236 = conditions: L-1236; L1236, Hodgkin Lymphoma, RPMI 10% FBS
From the text: as §1, §2

LY19 = conditions: LY19, GCB DLBCL, OCI
From the text: as §1, §2

LY3 = conditions: LY3, ABC DLBCL, OCI
From the text: as §1, §2

LY7 = conditions: LY7, GCB DLBCL, OCI
From the text: as §1, §2

MEDB1 = conditions: MEDB1, PMBL, RPMI 10% FBS
From the text: as §1, §2

Molt 4 = conditions: Homo sapiens; Molt 4, T-cell, RPMI 10% FBS
From the text: as §1, §2

Pfeiffer = conditions: Homo sapiens, GCB DLBCL, RPMI 10% FBS
From the text: as §1, §2

RL = conditions: Homo sapiens, GCB DLBCL, RPMI 10% FBS
From the text: as §1, §2

Raji = conditions: Homo sapiens, Burkitt Lymphoma, RPMI 10% FBS
From the text: as §1, §2

Rec1 = conditions: Homo sapiens; Rec1, MantleCellLymphoma, RPMI 10% FBS
From the text: as §1, §2

Reh = conditions: Homo sapiens, ALL, RPMI 10% FBS
From the text: as §1, §2

SUDHL4 = conditions: Homo sapiens, SU-DHL-4; SUDHL4, GCB DLBCL, RPMI 15% FBS
From the text: as §1, §2

Sci-1 = conditions: Sci-1, GCB DLBCL, RPMI 10% FBS
From the text: as §1, §2

TMD8 = conditions: Homo sapiens; TMD8, ABC DLBCL, MEM-α 10% FBS
From the text: as §1, §2

U937 = conditions: Homo sapiens, U-937; U937, AML, RPMI 10% FBS
From the text: as §1, §2

[1] = BJAB, GCB DLBCL, RPMI 10% FBS, read-out: IC50

IC50 (Daudi) [nM]	IC50 (H929) [nM]	IC50 (Karpas422) [nM]	IC50 (Molt 4) [nM]	SMILES	IC50 (BJAB; [1]) [nM]	IC50 (CA46) [nM]	IC50 (EB1) [nM]	IC50 (EB2) [nM]	IC50 (EB3) [nM]	IC50 (Farage) [nM]	IC50 (IM9) [nM]	IC50 (Jeko) [nM]	IC50 (Jijoye) [nM]	IC50 (K1106) [nM]	IC50 (KG1) [nM]	IC50 (L1236) [nM]	IC50 (LY19) [nM]	IC50 (LY3) [nM]	IC50 (LY7) [nM]	IC50 (MEDB1) [nM]	also measured
46.7	113	22	168	Cn1c(=O)n(-c2ccc(C(C)(C)C#N)cc2)c2c3cc(-c4cnc5ccccc5c4)ccc3ncc21 [BEZ235]	26.9	28.4	22.6	70.2	36.8	509	4500	51	140	536	79.9	60	224	80	257	1830	IC50 (BJAB; BJAB cells, read-out: IC50 concentration): 26.9 nM; IC50 (BJAB; BJAB cells, read-out: observed IC50): 26.9 nM; IC50 (Pfeiffer): 17.1 nM; IC50 (RL): 26 nM; IC50 (Raji): 300 nM; IC50 (Rec1): 82.3 nM; IC50 (Reh): 484 nM; IC50 (SUDHL4): 60.8 nM; IC50 (Sci-1): 35 nM; IC50 (TMD8): 118 nM; IC50 (U937): 15 nM
86.4	3.6	85.3	8	COc1ccc(-c2ccc3ncc4c(c3c2)n(-c2ccc(N3CCNCC3)c(C(F)(F)F)c2)c(=O)n4C)cn1 [BGT226]	8.5	27.6	71.6	199	44.5	162	201	16.6	13.1	18.2	25.1	12.4	33.3	20.4	20.4	49.7	IC50 (Pfeiffer): 20.8 nM; IC50 (RL): 64.1 nM; IC50 (Raji): 79.8 nM; IC50 (Rec1): 35.9 nM; IC50 (Reh): 13.4 nM; IC50 (SUDHL4): 51.3 nM; IC50 (Sci-1): 24.5 nM; IC50 (TMD8): 101 nM; IC50 (U937): 11.2 nM
1300	1200	2080	1110	Nc1cc(C(F)(F)F)c(-c2cc(N3CCOCC3)nc(N3CCOCC3)n2)cn1 [BKM120]	1470	729	1070	1070	655	752	575	752	2740	1870	724	1120	1890	893	2550	7790	IC50 (Pfeiffer): 1040 nM; IC50 (RL): 2600 nM; IC50 (Raji): 2310 nM; IC50 (Rec1): 776 nM; IC50 (Reh): 1020 nM; IC50 (SUDHL4): 1110 nM; IC50 (Sci-1): 985 nM; IC50 (TMD8): 764 nM; IC50 (U937): 895 nM
